Key:
[1] = 1 gram in ... ml of water; 25° C.; cited from earlier work
Clostridium sporogenes = assay: Suppression of trimethylamine (TMA) formation from choline by bacterial culture, headspace GC/FID; assay type: cell-based; conditions: added to the culture solution (internal standard mix)
Method: A viable method was developed for the assay of trimethylamine (TMA). The method utilizes triethylamine and methanol together as internal standards and choline as the substrate for generating TMA from the bacterial species. The bacterial culture for these studies was Clostridium sporogenes, which was grown in house at BioScreen.
Tests were conducted with a headspace gas chromatograph to verify that Clostridium sporogenes bacterial could actively generating trimethylamine from a choline substrate.
Equipment for the testing included a Trace GC Ultra gas chormoatograph and a Varian CP-Volamine column. An FID detector was used with 2.5 mL/min helium flow.
The bacterial species C. sporogenes, a species found in the lower GI tract. was inoculated into 100 mL of Fluid Thioglycolate medium and incubated at 35±2° C. for a minimum of 16 hours. At the end of incubation, the concentration of the bacterial suspension was confirmed by serial dilution in 9 mL PBS up to 10^−7 and anaerobic incubation at 32.5±2.5° C. for a minimum of 48 hours. Counts were recorded from dilution plates with 25 to 250 colonies. The average counts were multiplied by the reciprocal of the dilution factor to furnish the CFU/mL of the bacterial species. […]

## O=C(O)C(O)c1ccccc1 (centres unmarked) [mandelic acid]
[1]
  solubility in water: ml of water for 1 gram: 6.3 mL

## benzalkonium chloride
Clostridium sporogenes
  effect on reactivity of the bacterial culture with choline: stops further reactivity

Reference: patent US9668948B2, “Products and methods for reducing malodor from the pudendum” (priority 2009, dated 2017)
